The target of the experiment is Ubiquitin-conjugating enzyme E2 N (Homo sapiens) (UniProt P61088). Briefly: UBE2N binders by NMR, biophysical, purified protein (AID 1552). The note with it: NMR binding to purified UBE2N.

Active and inactive are the calls of the source. The rule behind the calls is not given here.

Ubiquitin-conjugating enzyme E2 N (Homo sapiens), sequence (P61088 whole entry, looked up): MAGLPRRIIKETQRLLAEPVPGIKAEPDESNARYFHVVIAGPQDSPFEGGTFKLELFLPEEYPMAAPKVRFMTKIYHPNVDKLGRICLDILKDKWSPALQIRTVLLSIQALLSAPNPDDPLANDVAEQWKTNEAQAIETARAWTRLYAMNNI

On to `Cn1cnc2c(cnn2-c2ccccc2)c1=O`, for which the Kd is > 4 mM (inactive). Take `O=C1CSC2(CN3CCC2CC3)N1` (stereo not drawn): the Kd is > 4 mM (inactive). Regarding `Nc1ccncc1`, the Kd was > 4 mM (inactive). For the molecule `CC(=O)NC(O)C(=O)c1cccs1` (stereo not drawn), the Kd is > 4 mM (inactive). Consider `CCn1cnc2cc([N+](=O)[O-])ccc2c1=O`, for which the Kd was > 4 mM (inactive).

As for `Cc1[nH]c2ccccc2c1C=Nn1cncn1`, the Kd is > 4 mM (inactive). On to `Cc1cc(C(=O)Nc2cccnc2)no1`, for which the Kd was > 4 mM (inactive). Next, `O=c1[nH]cc(COCc2ccccc2)c(=O)[nH]1`: > 4 mM (inactive). In the case of `COc1ccc(-c2cc(=O)c3c(O)cc(O[C@@H]4O[C@H](CO[C@H]5O[C@H](C)[C@@H](O)[C@H](O)[C@@H]5O)[C@@H](O)[C@H](O)[C@H]4O)cc3o2)cc1O` it was > 4 mM (inactive). As for `CCCCCC1C(=O)CCC1CC(=O)O` (stereo not drawn), the Kd is > 4 mM (inactive).

`O=c1c(O)c(-c2ccc(O)cc2O)oc2cc(O)cc(O)c12`: the Kd is > 4 mM (inactive). `CC(=O)NC(NC(C)=O)c1ccccc1`: the Kd was > 4 mM (inactive). In the case of `O=S1(=O)CCC(N2CCCCC2)C1` (stereo not drawn) it was > 4 mM (inactive). `CSc1nc2[nH]ncc2c(=O)[nH]1`: the Kd was > 4 mM (inactive).

With `CSc1nnc(CN2CCSCC2)n1C`, the Kd is > 4 mM (inactive).

Consider `Cn1c(=O)c2[nH]c(Nc3ccccc3)nc2n(C)c1=O`, for which the Kd is > 4 mM (inactive).

For the molecule `Cc1cc(=O)c2c(O)cc(O)c(C)c2o1`, the Kd is > 4 mM (inactive). Turning to `CC12CCC(O)CC1CCC1C2[C@H](O)CC2(C)C(C3=CC(=O)OC3)CCC12O` (stereo partly drawn), the Kd is > 4 mM (inactive). For `Cc1nc2ccccc2c(=O)n1N1C(=O)CCCC1=O`, the Kd was > 4 mM (inactive). Next, `CN1CCN(CC(=O)NC2CCCCC2)CC1`: > 4 mM (inactive).

On to `COc1ccc(-c2ccc(=O)n(CC(N)=O)n2)cc1`, for which the Kd was > 4 mM (inactive).

For the molecule `O=c1[nH]c(=O)n(-c2ccc(F)cc2)c(O)c1/C=C1/C=CC=N1`, the Kd was > 4 mM (inactive).

As to `Cc1ccc(N2C(=O)CC(Sc3ncn[nH]3)C2=O)cc1` (stereo not drawn), the Kd was > 4 mM (inactive). For the molecule `Cc1ccc(-c2c(C)n([O-])c(C)c(C)[n+]2=O)cc1`, the Kd is > 4 mM (inactive).

For the molecule `O=C(O)C1(O)C[C@@H](O)C(O)[C@H](O)C1` (stereo partly drawn), the Kd was > 4 mM (inactive). In the case of `CCC(C)C(NC)C(=O)O` (stereo not drawn) it was > 4 mM (inactive); in that of `COc1cc2ccc(=O)oc2c(OC)c1OC`, > 4 mM (inactive).

Take `O=C(O)[C@H](O)[C@@](O)(Cc1ccc(O)cc1)C(=O)O`: the Kd is > 4 mM (inactive).

In the case of `Cn1c([O-])c([N+](C)(C)C)c(=O)n(C)c1=O`, the Kd was > 4 mM (inactive). Regarding `Cc1cc(=O)n(CCc2ccccc2)c(O)c1C#N`, the Kd is > 4 mM (inactive).

In the case of `O=C(NC(O)C(=O)c1ccccc1)c1ccco1` (stereo not drawn), the Kd is > 4 mM (inactive). Next, `OC1CCC(C(F)(F)F)CC1` (stereo not drawn): > 4 mM (inactive); `O=[n+]1cc(C2=CC=CCC2)n([O-])c2c1CCCCC2`: > 4 mM (inactive). `CC(C)(C)c1cc(N)n[nH]1`: the Kd is > 4 mM (inactive). Turning to `Nc1ccc2c(c1)COc1ccccc1O2`, the Kd was > 4 mM (inactive). Regarding `Cc1nnc(NCc2ccc3c(c2)OCO3)[nH]c1=O`, the Kd is > 4 mM (inactive). For `Cc1cc(C)n(-c2ccc(N)cc2)n1`, the Kd was > 4 mM (inactive). Turning to `CC1(C)C=CC(=O)[C@@]2(C)C1CC(=O)[C@]1(C)C2CC[C@@]2(C)[C@H](c3ccoc3)OC(=O)C3OC321` (stereo partly drawn), the Kd is > 4 mM (inactive). Consider `Cc1[nH]c2ccccc2c1Cc1n[nH]c(=S)n1C`, for which the Kd is > 4 mM (inactive).

As for `CNC(=S)N1CCN(C(=O)c2ccco2)CC1`, the Kd was > 4 mM (inactive).

With `O=C(O)Cc1noc2ccccc12`, the Kd was > 4 mM (inactive).

In the case of `CC[C@H]1CN2CCc3cc(OC)c(OC)cc3C2C[C@@H]1CC1NCCc2cc(OC)c(OC)cc21` (stereo partly drawn), the Kd was > 4 mM (inactive).

Consider `CC(=O)N1C(=S)NC(=O)/C1=C\c1cccnc1`, for which the Kd was > 4 mM (inactive).

With `C[C@@H]1CC[C@@]2(OC1)OC1C(O)C3C4CC[C@H]5C[C@H](O[C@@H]6O[C@H](CO)[C@H](O[C@@H]7O[C@H](CO)[C@@H](O)[C@H](O[C@@H]8OC[C@@H](O)[C@H](O)[C@H]8O)[C@H]7O[C@@H]7O[C@H](CO)[C@H](O)[C@H](O[C@@H]8O[C@H](CO)[C@@H](O)[C@H](O)[C@H]8O)[C@H]7O)[C@H](O)[C@H]6O)[C@H](O)C[C@]5(C)C4CC[C@]3(C)C1[C@@H]2C` (stereo partly drawn), the Kd is > 4 mM (inactive). Next, `Nc1cccc(S(=O)(=O)N2CCCCC2)c1`: > 4 mM (inactive); `O=C(Nc1ncccn1)c1cccc(F)c1`: > 4 mM (inactive); `CN1CCC(N(C)C2CCN(C)CC2)CC1`: > 4 mM (inactive). As to `COC(=O)CC1=Nc2ccccc2NC(=O)C1`, the Kd was > 4 mM (inactive).

`Nc1scc[n+]1CC(=O)[O-]`: the Kd is > 4 mM (inactive). On to `Cc1occc1C(=O)Nc1ccc2c(c1)CCC2`, for which the Kd is > 4 mM (inactive). On to `CC(=O)CS(=O)(=O)c1ccccc1`, for which the Kd is > 4 mM (inactive). Turning to `CC(=O)C1CCC2C3CCC4C[C@H](O)CCC4(C)C3C[C@H](O)C12C` (stereo partly drawn), the Kd was > 4 mM (inactive). Turning to `O=c1[nH]cnc2nn(-c3ccccc3)nc12`, the Kd was > 4 mM (inactive). Regarding `S=C(c1ccc(N2CCOCC2)cc1)N1CCOCC1`, the Kd is > 4 mM (inactive). For `COC(=O)C[C@H]1C2(C)CC34OC5(C)O[C@@]6([C@H](OC(C)=O)C(OC(C)=O)[C@]7(C)C(/C(=C(/O)C(C)C)C(=O)O[C@H]7c7ccoc7)[C@@]6(O5)[C@H](OC(C)=O)[C@@]3(O)C2OC(=O)C(C)C)[C@]14C` (stereo partly drawn), the Kd is > 4 mM (inactive). For the molecule `Cc1nn(-c2ccccc2)c(Cl)c1C(N)=O`, the Kd was > 4 mM (inactive). For `CCSc1nnc(-c2ccccc2N)c(=O)[nH]1`, the Kd was > 4 mM (inactive). Turning to `Cc1sc(N)c(C(N)=O)c1C`, the Kd was > 4 mM (inactive). Take `O=C(Nn1cnnc1)c1csc2ccccc12`: the Kd was > 4 mM (inactive). With `O=C1CN(C(=O)CN2CCOCC2)c2ccccc2N1`, the Kd was > 4 mM (inactive). Take `CC(=O)Nc1cccc(-c2nnc(-c3ccccc3)o2)c1`: the Kd is > 4 mM (inactive). Consider `CCNC(=O)CC1Nc2ccccc2NC1=O` (stereo not drawn), for which the Kd was > 4 mM (inactive).

In the case of `Cc1cc(C(=O)NCc2cccs2)c(C)o1`, the Kd was > 4 mM (inactive). For the molecule `CC(C)c1nnc(N)s1`, the Kd is > 4 mM (inactive). With `C=C1C2CC[C@@]3(C)[C@H](c4ccoc4)OC(=O)C[C@]13O[C@H]1CC(=O)C(C)(C)C(CC(=O)OC)C21C` (stereo partly drawn), the Kd is > 4 mM (inactive). Take `CN1CCC(NC(=O)c2ccccc2[N+](=O)[O-])CC1`: the Kd was > 4 mM (inactive).

`O=C1CC(NCc2ccco2)C(=O)NN1` (stereo not drawn): the Kd is > 4 mM (inactive).

On to `CC1(C)CC(=O)c2cnn(-c3nc4ccccc4[nH]3)c2C1`, for which the Kd was > 4 mM (inactive).
